US7767659B2, “Synthesis of naturally occurring ecteinascidins and related compounds” (Pharma Mar, S.A., priority 2002, dated 2010)

Columns and labels:
A-549 = test: cells; conditions: Homo sapiens, A549, 48 h; for GI50: read-out: A549 GI50; for CC50: read-out: A549 LC50; for IC (TGI): read-out: A549 TGI
How it was run: (§1)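 Colorimetric SRB read (490 nm) on triplicate wells after 48 h at 37 °C, 5% CO2. Dose range 10 to 10^−8 μg/ml; 5×10^3 cells/well pre-attached 18 h.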

HT-29 = test: cells; conditions: Homo sapiens, HT-29, 48 h; for GI50: read-out: HT29 GI50; for CC50: read-out: HT29 LC50; for IC (TGI): read-out: HT29 TGI
How it was run: as §1

LoVo = test: cells; conditions: Homo sapiens, LoVo, 48 h; for GI50: read-out: LOVO GI50; for CC50: read-out: LOVO LC50; for IC (TGI): read-out: LOVO TGI
How it was run: as §1

DU-145 = test: Inhibition of cells growth by colorimetric assay (SRB); conditions: Homo sapiens, DU-145, 48 h; for GI50: read-out: DU145 GI50; for CC50: read-out: DU145 LC50; for IC (TGI): read-out: DU145 TGI
How it was run: as §1

HeLa-APL = test: as above; conditions: Homo sapiens, 48 h; for GI50: read-out: HELA-APL GI50; for CC50: read-out: HELA-APL LC50; for IC (TGI): read-out: HELA-APL TGI
How it was run: as §1

HeLa = test: as above; conditions: Homo sapiens, HeLa, 48 h; for GI50: read-out: HELA GI50; for CC50: read-out: HELA LC50; for IC (TGI): read-out: HELA TGI
How it was run: as §1

IGROV-1 = test: as above; conditions: Homo sapiens, IGROV-1, 48 h; for GI50: read-out: IGROV GI50; for CC50: read-out: IGROV LC50; for IC (TGI): read-out: IGROV TGI
How it was run: as §1

IGROV-ET = test: as above; conditions: Homo sapiens, 48 h; for GI50: read-out: IGROV-ET GI50; for CC50: read-out: IGROV-ET LC50; for IC (TGI): read-out: IGROV-ET TGI
How it was run: as §1

K-562 = test: as above; conditions: Homo sapiens, K562, 48 h; for GI50: read-out: K562 GI50; for CC50: read-out: K562 LC50; for IC (TGI): read-out: K562 TGI
How it was run: as §1

LNCaP = test: as above; conditions: Homo sapiens, LNCaP, 48 h; for GI50: read-out: LNCAP GI50; for CC50: read-out: LNCAP LC50; for IC (TGI): read-out: LNCAP TGI
How it was run: as §1

LoVo-Dox = test: as above; conditions: Homo sapiens, 48 h; for GI50: read-out: LOVO-DOX GI50; for CC50: read-out: LOVO-DOX LC50; for IC (TGI): read-out: LOVO-DOX TGI
How it was run: as §1

PANC-1 = test: as above; conditions: Homo sapiens, PANC-1, 48 h; for GI50: read-out: PANC-1 GI50; for CC50: read-out: PANC-1 LC50; for IC (TGI): read-out: PANC-1 TGI
How it was run: as §1

SK-BR-3 = test: as above; conditions: Homo sapiens, SK-BR-3, 48 h; for GI50: read-out: SK-BR3 GI50; for CC50: read-out: SK-BR3 LC50; for IC (TGI): read-out: SK-BR3 TGI
How it was run: as §1

SK-MEL-28 = test: as above; conditions: Homo sapiens, SK-MEL-28, 48 h; for GI50: read-out: MEL-28 GI50; for CC50: read-out: MEL-28 LC50; for IC (TGI): read-out: MEL-28 TGI
How it was run: as §1

## C=CCN1[C@@H]2c3c(cc(C)c(OC)c3O)C[C@H]1[C@H](C#N)N1C2[C@@H]2SC[C@]3(NCCc4c3[nH]c3ccc(O)cc43)C(=O)OC[C@H]1c1c3c(c(C)c(OC(C)=O)c12)OCO3 (stereo partly drawn) [compound 57]
A-549
  GI50: 37.4 nM
  CC50: 1500 nM
  IC (TGI): 101 nM
HT-29
  GI50: 44.6 nM
  CC50: 12200 nM
  IC (TGI): 4380 nM
LoVo
  GI50: 85.9 nM
  CC50: 877 nM
  IC (TGI): 274 nM
DU-145
  GI50: 52.1 nM
  CC50: 12200 nM
  IC (TGI): 12200 nM
HeLa-APL
  GI50: 22.3 nM
  CC50: 115 nM
  IC (TGI): 50.5 nM
HeLa
  GI50: 26.8 nM
  CC50: 112 nM
  IC (TGI): 56.4 nM
IGROV-1
  GI50: 28.8 nM
  CC50: 6480 nM
  IC (TGI): 66 nM
IGROV-ET
  GI50: 252 nM
  CC50: 1170 nM
  IC (TGI): 544 nM
K-562
  GI50: 8.82 nM
  CC50: 12200 nM
  IC (TGI): 88.8 nM
LNCaP
  GI50: 15.1 nM
  CC50: 69.3 nM
  IC (TGI): 32.3 nM
LoVo-Dox
  GI50: 774 nM
  CC50: 12200 nM
  IC (TGI): 6220 nM
PANC-1
  GI50: 52.9 nM
  CC50: 12200 nM
  IC (TGI): 1340 nM
SK-BR-3
  GI50: 6.42 nM
  CC50: 382 nM
  IC (TGI): 31.8 nM
SK-MEL-28
  GI50: 29.3 nM
  CC50: 106 nM
  IC (TGI): 55.6 nM

## C=CCN1[C@@H]2c3c(cc(C)c(OC)c3O)C[C@H]1[C@H](O)N1C2[C@@H]2SCC(NC(C)=O)C(=O)OC[C@H]1c1c3c(c(C)c(OC(C)=O)c12)OCO3 (stereo partly drawn) [compound 41]
A-549
  GI50: 43.1 nM
  CC50: 125 nM
  IC (TGI): 73.5 nM
HT-29
  GI50: 42.7 nM
  CC50: 14700 nM
  IC (TGI): 120 nM
LoVo
  GI50: 37.8 nM
  CC50: 14700 nM
  IC (TGI): 94 nM
DU-145
  GI50: 45.3 nM
  CC50: 274 nM
  IC (TGI): 75.5 nM
HeLa-APL
  GI50: 30.1 nM
  CC50: 132 nM
  IC (TGI): 63.1 nM
HeLa
  GI50: 28.2 nM
  CC50: 120 nM
  IC (TGI): 58.1 nM
IGROV-1
  GI50: 15.7 nM
  CC50: 121 nM
  IC (TGI): 43.7 nM
IGROV-ET
  GI50: 41.8 nM
  CC50: 14700 nM
  IC (TGI): 87.1 nM
K-562
  GI50: 20.4 nM
  CC50: 125 nM
  IC (TGI): 50.5 nM
LNCaP
  GI50: 0.95 nM
  CC50: 92.8 nM
  IC (TGI): 31.4 nM
LoVo-Dox
  GI50: 270 nM
  CC50: 14700 nM
  IC (TGI): 1180 nM
PANC-1
  GI50: 37.7 nM
  CC50: 14700 nM
  IC (TGI): 100 nM
SK-BR-3
  GI50: 32.3 nM
  CC50: 352 nM
  IC (TGI): 72.2 nM
SK-MEL-28
  GI50: 33.7 nM
  CC50: 123 nM
  IC (TGI): 64.5 nM
